Measurements from ChEMBL document CHEMBL1649268, “Comparative in vitro activity profile of oritavancin against recent gram-positive clinical isolates” (2009).

Assays:
[1] = system: Streptococcus; test: Antimicrobial activity against erythromycin-nonsusceptible Streptococcus Group F clinical isolates assessed as percent susceptible isolates by broth microdilution method; format: functional
[2] = system: Streptococcus; test: Antimicrobial activity against erythromycin-susceptible Streptococcus Group F clinical isolates by broth microdilution method; format: functional
[3] = system: Streptococcus agalactiae; test: Antimicrobial activity against erythromycin-nonsusceptible Streptococcus agalactiae clinical isolates by broth microdilution method; format: functional
[4] = system: Streptococcus; test: Antimicrobial activity against erythromycin-susceptible Streptococcus Group F clinical isolates assessed as percent susceptible isolates by broth microdilution method; format: functional
[5] = system: Streptococcus pneumoniae; test: Antimicrobial activity against penicillin-intermediate Streptococcus pneumoniae clinical isolates assessed as percent susceptible isolates by broth microdilution method; format: functional
[6] = Antimicrobial activity against erythromycin-nonsusceptible Streptococcus Group C clinical isolates assessed as percent susceptible isolates by broth microdilution method; format: functional, Streptococcus sp. 'group C'
[7] = system: Streptococcus agalactiae; test: Antimicrobial activity against erythromycin-susceptible Streptococcus agalactiae clinical isolates assessed as resistant isolates by broth microdilution method; format: functional
[8] = system: Streptococcus pyogenes; test: Antimicrobial activity against Streptococcus pyogenes clinical isolates assessed as resistant isolates by broth microdilution method; format: functional
[9] = system: Streptococcus agalactiae; test: Antimicrobial activity against erythromycin-susceptible Streptococcus agalactiae clinical isolates by broth microdilution method; format: functional
[10] = system: Streptococcus; test: Antimicrobial activity against Streptococcus Group F clinical isolates assessed as resistant isolates by broth microdilution method; format: functional
[11] = Antimicrobial activity against erythromycin-nonsusceptible Streptococcus Group G clinical isolates by broth microdilution method; format: functional; details: Streptococcus sp. 'group G'
[12] = system: Streptococcus pyogenes; test: Antimicrobial activity against Streptococcus pyogenes clinical isolates assessed as percent susceptible isolates by broth microdilution method; format: functional
[13] = Antimicrobial activity against erythromycin-susceptible Streptococcus Group C clinical isolates by broth microdilution method; format: functional; details: Streptococcus sp. 'group C'
[14] = system: Streptococcus pneumoniae; test: Antimicrobial activity against Streptococcus pneumoniae clinical isolates assessed as resistant isolates by broth microdilution method; format: functional
[15] = system: Streptococcus pyogenes; test: Antimicrobial activity against erythromycin-nonsusceptible Streptococcus pyogenes clinical isolates by broth microdilution method; format: functional
[16] = system: Streptococcus pyogenes; test: Antimicrobial activity against erythromycin-susceptible Streptococcus pyogenes clinical isolates assessed as percent susceptible isolates by broth microdilution method; format: functional
[17] = Antimicrobial activity against erythromycin-nonsusceptible Streptococcus Group C clinical isolates assessed as resistant isolates by broth microdilution method; format: functional, Streptococcus sp. 'group C'
[18] = system: Streptococcus; test: Antimicrobial activity against Streptococcus Group F clinical isolates by broth microdilution method; format: functional
[19] = Antimicrobial activity against erythromycin-nonsusceptible Streptococcus Group C clinical isolates by broth microdilution method; format: functional; details: Streptococcus sp. 'group C'
[20] = system: Streptococcus pneumoniae; test: Antimicrobial activity against Streptococcus pneumoniae clinical isolates by broth microdilution method; format: functional
[21] = Antimicrobial activity against Streptococcus Group G clinical isolates assessed as resistant isolates by broth microdilution method; format: functional, Streptococcus sp. 'group G'
[22] = Antimicrobial activity against Streptococcus Group C clinical isolates assessed as resistant isolates by broth microdilution method; format: functional, Streptococcus sp. 'group C'
[23] = system: Streptococcus agalactiae; test: Antimicrobial activity against erythromycin-nonsusceptible Streptococcus agalactiae clinical isolates assessed as resistant isolates by broth microdilution method; format: functional
[24] = Antimicrobial activity against Streptococcus Group C clinical isolates by broth microdilution method; format: functional; details: Streptococcus sp. 'group C'
[25] = Antimicrobial activity against Streptococcus Group C clinical isolates assessed as percent susceptible isolates by broth microdilution method; format: functional, Streptococcus sp. 'group C'
[26] = system: Streptococcus pneumoniae; test: Antimicrobial activity against Streptococcus pneumoniae clinical isolates assessed as percent susceptible isolates by broth microdilution method; format: functional
[27] = Antimicrobial activity against erythromycin-susceptible Streptococcus Group C clinical isolates assessed as resistant isolates by broth microdilution method; format: functional, Streptococcus sp. 'group C'
[28] = system: Streptococcus pneumoniae; test: Antimicrobial activity against penicillin-intermediate Streptococcus pneumoniae clinical isolates by broth microdilution method; format: functional
[29] = system: Streptococcus pyogenes; test: Antimicrobial activity against erythromycin-nonsusceptible Streptococcus pyogenes clinical isolates assessed as resistant isolates by broth microdilution method; format: functional
[30] = system: Streptococcus agalactiae; test: Antimicrobial activity against Streptococcus agalactiae clinical isolates assessed as percent susceptible isolates by broth microdilution method; format: functional
[31] = system: Streptococcus; test: Antimicrobial activity against erythromycin-susceptible Streptococcus Group F clinical isolates assessed as resistant isolates by broth microdilution method; format: functional
[32] = system: Streptococcus pyogenes; test: Antimicrobial activity against erythromycin-susceptible Streptococcus pyogenes clinical isolates assessed as resistant isolates by broth microdilution method; format: functional
[33] = system: Streptococcus; test: Antimicrobial activity against erythromycin-nonsusceptible Streptococcus Group F clinical isolates by broth microdilution method; format: functional
[34] = system: Streptococcus; test: Antimicrobial activity against Streptococcus Group F clinical isolates assessed as percent susceptible isolates by broth microdilution method; format: functional
[35] = system: Streptococcus agalactiae; test: Antimicrobial activity against erythromycin-nonsusceptible Streptococcus agalactiae clinical isolates assessed as percent susceptible isolates by broth microdilution method; format: functional
[36] = system: Streptococcus pyogenes; test: Antimicrobial activity against erythromycin-nonsusceptible Streptococcus pyogenes clinical isolates assessed as percent susceptible isolates by broth microdilution method; format: functional
[37] = Antimicrobial activity against Streptococcus Group G clinical isolates by broth microdilution method; format: functional; details: Streptococcus sp. 'group G'
[38] = system: Streptococcus agalactiae; test: Antimicrobial activity against Streptococcus agalactiae clinical isolates assessed as resistant isolates by broth microdilution method; format: functional
[39] = system: Streptococcus pyogenes; test: Antimicrobial activity against Streptococcus pyogenes clinical isolates by broth microdilution method; format: functional
[40] = Antimicrobial activity against erythromycin-susceptible Streptococcus Group G clinical isolates assessed as percent susceptible isolates by broth microdilution method; format: functional, Streptococcus sp. 'group G'
[41] = system: Streptococcus; test: Antimicrobial activity against erythromycin-nonsusceptible Streptococcus Group F clinical isolates assessed as resistant isolates by broth microdilution method; format: functional
[42] = system: Streptococcus pneumoniae; test: Antimicrobial activity against penicillin-susceptible Streptococcus pneumoniae clinical isolates by broth microdilution method; format: functional
[43] = system: Streptococcus pneumoniae; test: Antimicrobial activity against penicillin-susceptible Streptococcus pneumoniae clinical isolates assessed as percent susceptible isolates by broth microdilution method; format: functional
[44] = system: Streptococcus pyogenes; test: Antimicrobial activity against erythromycin-susceptible Streptococcus pyogenes clinical isolates by broth microdilution method; format: functional
[45] = system: Streptococcus agalactiae; test: Antimicrobial activity against Streptococcus agalactiae clinical isolates by broth microdilution method; format: functional
[46] = Antimicrobial activity against Streptococcus Group G clinical isolates assessed as percent susceptible isolates by broth microdilution method; format: functional, Streptococcus sp. 'group G'
[47] = system: Streptococcus pneumoniae; test: Antimicrobial activity against penicillin-resistant Streptococcus pneumoniae clinical isolates by broth microdilution method; format: functional
[48] = Antimicrobial activity against erythromycin-susceptible Streptococcus Group G clinical isolates assessed as resistant isolates by broth microdilution method; format: functional, Streptococcus sp. 'group G'
[49] = Antimicrobial activity against erythromycin-nonsusceptible Streptococcus Group G clinical isolates assessed as resistant isolates by broth microdilution method; format: functional, Streptococcus sp. 'group G'
[50] = system: Streptococcus agalactiae; test: Antimicrobial activity against erythromycin-susceptible Streptococcus agalactiae clinical isolates assessed as percent susceptible isolates by broth microdilution method; format: functional
[51] = Antimicrobial activity against erythromycin-nonsusceptible Streptococcus Group G clinical isolates assessed as percent susceptible isolates by broth microdilution method; format: functional, Streptococcus sp. 'group G'
[52] = Antimicrobial activity against erythromycin-susceptible Streptococcus Group C clinical isolates assessed as percent susceptible isolates by broth microdilution method; format: functional, Streptococcus sp. 'group C'
[53] = Antimicrobial activity against erythromycin-susceptible Streptococcus Group G clinical isolates by broth microdilution method; format: functional; details: Streptococcus sp. 'group G'
[54] = system: Staphylococcus haemolyticus; test: Antimicrobial activity against oxacillin-resistant Staphylococcus haemolyticus clinical isolates by broth microdilution method; format: functional
[55] = system: Enterococcus faecalis; test: Antimicrobial activity against Enterococcus faecalis expressing VanA gene clinical isolates by broth microdilution method; format: functional
[56] = system: Enterococcus faecalis; test: Antimicrobial activity against vancomycin-susceptible Enterococcus faecalis clinical isolates by broth microdilution method; format: functional
[57] = system: Staphylococcus haemolyticus; test: Antimicrobial activity against Staphylococcus haemolyticus clinical isolates by broth microdilution method; format: functional
[58] = system: Enterococcus faecium; test: Antimicrobial activity against Enterococcus faecium expressing VanB gene clinical isolates by broth microdilution method; format: functional
[59] = system: Enterococcus faecium; test: Antimicrobial activity against vancomycin-susceptible Enterococcus faecium clinical isolates by broth microdilution method; format: functional
[60] = system: Staphylococcus epidermidis; test: Antimicrobial activity against oxacillin-resistant Staphylococcus epidermidis clinical isolates by broth microdilution method; format: functional
[61] = system: Enterococcus faecalis; test: Antimicrobial activity against vancomycin-nonsusceptible Enterococcus faecalis clinical isolates by broth microdilution method; format: functional
[62] = system: Staphylococcus epidermidis; test: Antimicrobial activity against Staphylococcus epidermidis clinical isolates by broth microdilution method; format: functional
[63] = system: Staphylococcus haemolyticus; test: Antimicrobial activity against oxacillin-susceptible Staphylococcus haemolyticus clinical isolates by broth microdilution method; format: functional
[64] = system: Staphylococcus aureus; test: Antimicrobial activity against oxacillin-susceptible Staphylococcus aureus clinical isolates by broth microdilution method; format: functional
[65] = system: Staphylococcus epidermidis; test: Antimicrobial activity against oxacillin-susceptible Staphylococcus epidermidis clinical isolates by broth microdilution method; format: functional
[66] = system: Staphylococcus aureus; test: Antimicrobial activity against heterogeneous vancomycin-intermediate Staphylococcus aureus clinical isolates; format: functional
[67] = system: Staphylococcus aureus; test: Antimicrobial activity against vancomycin-resistant Staphylococcus aureus clinical isolates; format: functional
[68] = system: Enterococcus faecalis; test: Antimicrobial activity against Enterococcus faecalis expressing VanB gene clinical isolates by broth microdilution method; format: functional
[69] = system: Staphylococcus aureus; test: Antimicrobial activity against Staphylococcus aureus clinical isolates by broth microdilution method; format: functional
[70] = system: Enterococcus faecium; test: Antimicrobial activity against Enterococcus faecium expressing VanA gene clinical isolates by broth microdilution method; format: functional
[71] = system: Enterococcus faecium; test: Antimicrobial activity against Enterococcus faecium clinical isolates by broth microdilution method; format: functional
[72] = system: Enterococcus faecium; test: Antimicrobial activity against vancomycin-nonsusceptible Enterococcus faecium clinical isolates by broth microdilution method; format: functional
[73] = system: Staphylococcus aureus; test: Antimicrobial activity against oxacillin-resistant Staphylococcus aureus clinical isolates by broth microdilution method; format: functional
[74] = system: Enterococcus faecalis; test: Antimicrobial activity against Enterococcus faecalis clinical isolates by broth microdilution method; format: functional
[75] = system: Staphylococcus aureus; test: Antimicrobial activity against vancomycin-intermediate Staphylococcus aureus clinical isolates; format: functional
[76] = system: Staphylococcus aureus; test: Antimicrobial activity against vancomycin- susceptible Staphylococcus aureus clinical isolates; format: functional

CC1(C)S[C@@H]2[C@H](NC(=O)Cc3ccccc3)C(=O)N2[C@H]1C(=O)O [PENICILLIN G]
1 µg/mL: MIC90 [28]
4 µg/mL: MIC90 [47]
0.03 µg/mL: MIC90 [11] | MIC90 [15] | MIC90 [19] | MIC90 [33]
≤ 0.03 µg/mL: MIC90 [39] | MIC [42] | MIC90 [42] | MIC90 [44]
64%: Activity [26]
0.06 µg/mL: MIC90 [2] | MIC90 [3] | MIC90 [9] | MIC90 [13] | MIC90 [18] | MIC90 [24] | MIC90 [37] | MIC90 [45] | MIC90 [53]
14.7%: Resistant isolates [14]
0%: Activity [5] | Activity [7] | Activity [8] | Activity [10] | Activity [17] | Activity [21] | Activity [22] | Activity [23] | Activity [27] | Activity [29] | Activity [31] | Activity [32] | Activity [38] | Activity [41] | Activity [48] | Activity [49]
100%: Activity [1] | Activity [4] | Activity [6] | Activity [12] | Activity [16] | Activity [25] | Activity [30] | Activity [34] | Activity [35] | Activity [36] | Activity [40] | Activity [43] | Activity [46] | Activity [50] | Activity [51] | Activity [52]
2 µg/mL: MIC90 [20]

CN[C@H](CC(C)C)C(=O)N[C@H]1C(=O)N[C@@H](CC(N)=O)C(=O)N[C@H]2C(=O)N[C@H]3C(=O)N[C@H](C(=O)N[C@H](C(=O)O)c4cc(O)cc(O)c4-c4cc3ccc4O)[C@H](O[C@H]3C[C@](C)(N)[C@@H](O)[C@H](C)O3)c3ccc(c(Cl)c3)Oc3cc2cc(c3O[C@@H]2O[C@H](CO)[C@@H](O)[C@H](O)[C@H]2O[C@H]2C[C@](C)(NCc3ccc(-c4ccc(Cl)cc4)cc3)[C@@H](O)[C@H](C)O2)Oc2ccc(cc2Cl)[C@H]1O [ORITAVANCIN]
0.5 µg/mL: MIC90 [2] | MIC90 [18] | MIC90 [24] | MIC90 [67] | MIC90 [37] | MIC90 [53]
0.03 µg/mL: MIC90 [59]
0.008 µg/mL: MIC90 [20] | MIC90 [28] | MIC90 [47]
0.004 µg/mL: MIC90 [42]
1 µg/mL: MIC90 [55] | MIC90 [61] | MIC90 [66] | MIC90 [75]
0.06 µg/mL: MIC90 [56] | MIC90 [58] | MIC90 [63] | MIC90 [68] | MIC90 [74]
0.25 µg/mL: MIC90 [3] | MIC90 [9] | MIC90 [11] | MIC90 [60] | MIC90 [15] | MIC90 [62] | MIC90 [19] | MIC90 [65] | MIC90 [33] | MIC90 [70] | MIC90 [72] | MIC90 [39] | MIC90 [44] | MIC90 [45]
0.12 µg/mL: MIC90 [54] | MIC90 [57] | MIC90 [64] | MIC90 [69] | MIC90 [71] | MIC90 [73] | MIC90 [76]
≤ 0.0005 µg/mL: MIC [13]
